Data on eleven compounds can be found in patent US20250215016A1, “ISOXAZOLE-HETEROCYCLIC DERIVATIVE, PHARMACEUTICAL COMPOSITION AND USE” (SHANGHAI SIMR BIOTECHNOLOGY CO., LTD, priority 2022, published 2025).

One series has as its target α5-GABAA receptor (Homo sapiens (Human), UniProt P18507+P31644). The series can be described thus: Whole-cell patch clamp electrophysiology, inverse regulation activity in α5β3γ2-HEK293 cells. It is filed as cell-based. To be noted: compound 100 nM; GABA 0.05-0.06 μM (about EC7-8); clamped at −60 mV; read-out: Inverse regulation efficiency to α5-GABAA receptor. The source says: α, β and γ subunits are essential for the formation of a complete functional GABAA receptor. […] The specific subunit protein sequences are as follows: α5 subunit (protein sequence can be found in GenBank accession number: NM_000810.3); α2 subunit (protein sequence can be found in GenBank accession number: NM_000807.4); β3 subunit (protein sequence can be found in GenBank accession number: NM_000814.5); γ2 subunit (protein sequence can be found in GenBank accession number: NM_000816.3).
(§1) The above cell lines were subcultured. Amplification of α5β3γ2-HEK293 and α2β3γ2-HEK293 cells was used to test the affinity of the compounds to benzodiazepine site (BZD) of the GABAA receptor. During the passage of α5β3γ2-HEK293 cells, some of the suspended cells were spread on a glass slide pretreated with Poly-D-Lysine for electrophysiological testing.
The inverse regulation activity of the test drugs on α5-GABAA receptor was detected by an electrophysiological method. The specific method was as follows:
Compound concentration setting: the final concentration of the compounds used for compound screening was 100 nM. GABA concentration was 0.05-0.06 μM (about EC7-8). […] The extracellular fluid (ECS) ingredients for electrophysiology were as follows: 150 mM NaCl, 5 mM KCl, 2.5 mM CaCl2, 1 mM MgCl2, 10 mM HEPES and 10 mM glucose (pH 7.4); the electrode internal solution (ICS) formula for electrophysiology was as follows: 140 mM CsCl, 11 mM EGTA, 10 mM HEPES, 2 mM CaCl2, 1 mM MgCl2, 4 mM MgATP, 2 mM TEA (pH 7.3). The above reagents were all purchased from Sigma aldrich. GABA (γ-aminobutyric acid, from sigma aldrich, lot: A5385) powder was prepared into a stock solution with pure water and then diluted in ECS. The compound was first prepared into a 4 mM stock solution with DMSO, and then gradually diluted in corresponding concentrations of GABA-ECS. The solutions were all prepared fresh prior to electrophysiological testing.
Electrophysiological signal acquisition were performed by using EPC 10 amplifier and PatchMaster software (HEKA) or Axon 700 B amplifier and Clampex software (AXON). The recording electrode was made by drawing borosilicate glass (purchased from sutter), and has an electrode resistance of 4˜6 MΩ. Extracellular administration was carried out using ALA-VC-8PG (purchased from ALA, USA) system. A single independently grown cell was selected, and lysis was performed after the glass electrode and the cell forming a good seal, to form a whole cell mode. With the cellular membrane potential clamped at −60 mV, recording was carried out in the Gap-free mode. For the test, extracellular fluid was first applied extracellularly for about 20 seconds. After baseline (Iprebaseline) was stabilized, the extracellular fluid was switched to GABA-ECS. At this time, the current (Igaba) caused by GABA can be detected. At about 20-40 seconds, after the current stabilized, the extracellular fluid was switched to a mixed solution of the compound and GABA-ECS, until the current (Itreatment) caused by both the compound and GABA can be detected. Finally, the solution was switched to the extracellular fluid and the test was terminated after recording for 20-40 seconds.
The experimental results were analyzed using PatchMaster v2x90.1 or PatchMaster v2x90.3 software (EPC 10 amplifier) and Clampex10.6 software (Axon700B amplifier). The current value of each stage was calculated according to the average value of the stabilized current under the corresponding conditions. We defined the control current as Igaba−Iprebaseline, and the current after compound treatment as Itreatment−Iprebaseline. The inverse regulation activity of the compounds is expressed as a percentage and is calculated according to the following formula: Inverse regulation efficiency=[(Itreatment−Igaba)/(Igaba−Iprebaseline)]×100%.

Series [1] is described as follows: Stability in simulated gastric fluid (SGF). To be noted: 37° C., 1000 rpm. The format is physicochemical. As for the experimental part: Simulated gastric fluid (SGF), Manufacturer: Dongguan Chuangfeng Automation Technology Co., Ltd.; Product model: CF-006.
Oscillating constant temperature metal bath, Model: Thermo; Manufacturer: Digital Skaking Drybath.
Temperature: 37° C.; rotating speed: 1000 rpm; sampling time: 0, 4 hours.
Chromatographic column: Welch Xtimate C18 3.0×100 mm, 5 μm. Mobile phase: A: 0.04% trifluoroacetic acid (TFA)/H2O (v/v), B: acetonitrile (ACN). Gradient elution was performed according to the following table, flow rate: 1.0 mL/min; injection volume: 5 μL; column temperature: 35° C.; wavelength: 254 nm.
• (a) preparation of 0.04% TFA/H2O: 400 μL of TFA was measured, placed into 1 L of H2O, and homogenously mixed; • (b) Sample stock solution: about 3 mg of test sample was weighed, and prepared into a stock solution of 10 mmol/L using DMSO; • (c) 50 μL of the sample stock solution was taken, placed into a 5 mL volumetric flask, made up to the scale with the addition of SGF, and homogenously mixed. 400 μL of the solution was taken, four samples in parallel, and shaken at 1000 rpm and 37° C.; • (d) every two samples were taken after 0 and 4 hours respectively, 400 μL of acetonitrile was added, and homogenously mixed, followed by liquid phase injection, and calculation of the change % of the main peak area in the solution after 4 hours relative to 0 hour, two average value reports being taken at each time point.

Series [2] has as its target human α5β3γ2 receptor (α5-GABAA receptor) (Homo sapiens (Human), UniProt P18507+P31644). The series can be described thus: Radioligand (3H-flunitrazepam) competition binding assay, BZD site. As to conditions: 3H-flunitrazepam 1 nM; HEK293 membranes expressing human α5β3γ2.
Description: α, β and γ subunits are essential for the formation of a complete functional GABAA receptor. In this example, HEK293 cell strains stably expressing human α5-GABAA receptor (comprising α5β3γ2 subunit) and α2-GABAA receptor (comprising α2β3γ2 subunit) were constructed and screened, respectively, by liposome transfection method (Felgner, P. L., et al., Proceedings of the National Academy of Sciences, 1987, 84:7413-7417). The specific subunit protein sequences are as follows: α5 subunit (protein sequence can be found in GenBank accession number: NM_000810.3); α2 subunit (protein sequence can be found in GenBank accession number: NM_000807.4); β3 subunit (protein sequence can be found in GenBank accession number: NM_000814.5); γ2 subunit (protein sequence can be found in GenBank accession number: NM_000816.3).
as §1
Flunitrazepam is a non-specific reagent that binds to the BZD site efficiently. The affinity of the compounds to the BZD sites of the human α5β3γ2 and α2β3γ2 receptors can be determined by competing the compound with ^3H-flunitrazepam (isotope ^3H-labeled flunitrazepam) for binding to these two receptors.
Membrane preparation: HEK293 cells stably expressing human α5β3γ2 receptor or α2β3γ2 receptor were collected, suspended in 50 mM Tris-HCl buffer (pH=7.4), homogenized on ice by a homogenizer for 20 seconds 10 times, and centrifuged at 4° C., 1000 g for 10 min. The supernatant was collected, and the above steps were repeated. The supernatant was centrifuged (33800 g; centrifuge purchased from Thermo, rotor model: A27-8×50) at 4° C. for 60 min, and the precipitate was resuspended in Tris buffer (50 mM Tris-HCl, 10 mM MgCl2, 0.5 mM EDTA, 10% glycerol). The precipitate was the cell membrane. Protein content was determined by BCA (Bicinchoninic Acid) method (BCA kit from Pierce (Annoron)). The cell membrane was prepared into 1 ml aliquot and stored at −80° C.
Radioligand competition binding assay: the assay was carried out in a 200 μL system (96-well plate from Agilent) with 100 μL of cell membrane. The concentration of ^3H-flunitazepam (from PerkinElmer, lot: NET567250 UC) was 1 nM and the concentration of test compound was in the range 1×10^−5-10^−6 M. Flumazenil (from Tocris; lot: 1318) was used as a control. 1 μL of 2 mM flumazenil (final concentration 10 μM) was added to the Low signal control well (Low control, LC) and 1 μL of DMSO (from Sigma aldrich, lot: 472301) was added to the High signal control well (High control, HC). The final target membrane protein concentration was 5 μg/well. All test compound sample stocks were 10 mM DMSO solutions. The working concentration of the samples is to dilute all samples with DMSO to 0.2 mM, and then perform 4-fold continuous gradient dilution for a total of 8 concentration gradients. The 96-well plate was sealed with a plate sealing membrane and then incubated on a shaker at room temperature for 1 hour. Meanwhile, GF/C filter plate was soaked with a plate soaking buffer (0.3% PEI, polyethyleneimine, purchased from Sigma aldrich, model: P314, stored at 4° C.) for at least 0.5 hours. After completion of binding incubation, the cells were collected with a cell collector onto the GF/C filter plate and washed four times with a plate washing buffer (50 mM Tris-HCl, pH 7.4, stored at 4° C.). […]

The Ki is a measure of affinity in units of concentration, obtained from inhibition or displacement. Lower therefore signals a stronger hold on the target.

Regarding `Cc1onc(-c2ccc(F)cc2)c1COc1cnc(-c2cc3n(c(=O)n2)CCN3C)cn1` [Compound 47, 7-(5-((3-(4-fluorophenyl)-5-methylisoxazol-4-yl)methoxy)pyrazin-2-yl)-1-methyl-2,3-dihydroimidazo[1,2-c]pyrimidin-5(1H)-one], the inhibition at 0.1 µM on α5-GABAA receptor is 31%. Further, in series [1], the “Residual content in simulated gastric juice after 4 hours (compared with 0 hour content)” value was 82% (4 hours).

Regarding `Cc1onc(-c2ccc(F)cc2)c1COc1cnc(-c2nnc3n2CCN(C)C3)cn1` [Compound 16], the affinity in series [2], expressed as Ki, was 6.93 nM. At α5-GABAA receptor, the inhibition at 0.1 µM was 15%. In series [1], the “Residual content in simulated gastric juice after 4 hours (compared with 0 hour content)” value is on record as 76% (4 hours).

`Cc1onc(-c2ccc(F)cc2)c1COc1cnc(N2CCn3ccnc3C2)cn1` [Compound 48, 4-(((5-(5,6-dihydroimidazo [1,2-a]pyrazin-7(8H)-yl)pyrazin-2-yl)oxy)methyl)-3-(4-fluorophenyl)-5-methylisoxazole] displayed a Ki in series [2] of 68.5 nM. Also, the inhibition at 0.1 µM at α5-GABAA receptor came to 25%. In addition, in series [1], the “Residual content in simulated gastric juice after 4 hours (compared with 0 hour content)” value is 88% (4 hours).

`Cc1onc(-c2ccc(F)cc2)c1COc1ccc(C(=O)NC2CCOCC2)nn1` [WO2009071477, Example 63, reference compound]: the “Residual content in simulated gastric juice after 4 hours (compared with 0 hour content)” value in series [1] was 0% (4 hours).

For `Cc1onc(-c2ccc(F)cc2)c1COc1cnc(N2CCn3cccc3C2=O)cn1` [Compound 45, 2-(5-((3-(4-fluorophenyl)-5-methylisoxazol-4-yl)methoxy)pyrazin-2-yl)-3,4-dihydropyrrolo [1,2-a]pyrazin-1(2H)-one], in series [1], the “Residual content in simulated gastric juice after 4 hours (compared with 0 hour content)” value was 87% (4 hours).

For the compound `Cc1onc(-c2ccc(F)cc2)c1COc1ccc(-c2nnc3n2CCN(C)C3=O)cn1` [Compound 2, 3-(6-((3-(4-fluorophenyl)-5-methylisoxazol-4-yl)methoxy)pyridin-3-yl)-7-methyl-6,7-dihydro-[1,2,4]triazolo[4,3-a]pyrazin-8 (5H)-one], in series [2], affinity was put at a Ki of 7.7 nM. On α5-GABAA receptor, the inhibition at 0.1 µM is 29%. For the same compound, in series [1], the “Residual content in simulated gastric juice after 4 hours (compared with 0 hour content)” value is on record as 46% (4 hours).

As to `Cc1onc(-c2ccc(F)cc2)c1COc1ccc(C(=O)NC2CCOCC2)cn1` [WO2009071476, Example 109, reference compound], the “Residual content in simulated gastric juice after 4 hours (compared with 0 hour content)” value in series [1] is 15% (4 hours).

As to `Cc1onc(-c2ccc(F)cc2)c1COc1ccc(C(=O)N2CCS(=O)(=O)CC2)cn1` [WO2009071476, Example 112, reference compound], in series [1], the “Residual content in simulated gastric juice after 4 hours (compared with 0 hour content)” value is reported as 2% (4 hours).

For `Cc1onc(-c2ccc(F)cc2)c1COc1cnc(-c2nnc3n2CCN(C2CCC2)C3=O)cn1` [Compound 4, 7-cyclobutyl-3-(5-((3-(4-fluorophenyl)-5-methylisoxazol-4-yl)methoxy)pyrazin-2-yl)-6,7-dihydro-[1,2,4]triazolo[4,3-a]pyrazin-8(5H)-one], in series [1], the “Residual content in simulated gastric juice after 4 hours (compared with 0 hour content)” value was 89% (4 hours).

Turning to `Cc1onc(-c2ccc(F)cc2)c1COc1cnc(-c2cc3n(c(=O)n2)CC24CC(CN32)C4)cn1` [Compound 9, 3-(5-((3-(4-fluorophenyl)-5-methylisoxazol-4-yl)methoxy)pyrazin-2-yl)-7,8-dihydro-1H,6H,9H-7,8a-methanopyrrolo[1′,2′:3.4]imidazo[1,2-c]pyrimidin-1-one], in series [1], the “Residual content in simulated gastric juice after 4 hours (compared with 0 hour content)” value is reported as 64% (4 hours).

Regarding `Cc1onc(-c2ccc(F)cc2)c1COc1cnc(N2CCn3c(nnc3C(F)(F)F)C2=O)cn1` [Compound 26, 7-(5-((3-(4-fluorophenyl)-5-methylisoxazol-4-yl)methoxy)pyrazin-2-yl)-3-(trifluoromethyl)-6,7-dihydro-[1,2,4]triazolo[4,3-a]pyrazin-8(5H)-one], the “Residual content in simulated gastric juice after 4 hours (compared with 0 hour content)” value in series [1] is 80% (4 hours).
